Results on 11 molecules are retold here after ChEMBL document CHEMBL1201862, “PubChem BioAssay data set” (2004).

Each structure is given as a SMILES string.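 Cultured in 96-well plates, cells were exposed to test compound for 48 hours across five concentrations. The concentration for 50% growth inhibition is given as GI50.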 The source made the active and inactive calls. No stated cut-off is given here; in the data, active = GI50 up to about 1.1 µM and inactive = higher.

Test systems include U-251; Malme-3M; SN12C; CCRF-CEM; M14; NCI-H522; BT-549; HCT-15; OVCAR-4; MDA-N; SF-268; MDA-MB-435; HT-29; SF-539; EKVX; HL-60; SNB-75; OVCAR-3; MOLT-4.
What all share (assay): NCI anticancer screen, dose series, 48 h

As to `CC(=O)c1ccc(Oc2c3ccccc3nc3ccccc23)cc1`, the GI50 in the test on U-251 is 11.6 µM (inactive); in the test on Malme-3M it was 12.6 µM (inactive); in the test on SN12C, 5.08 µM (inactive); in the test on CCRF-CEM, 2.82 µM (inactive); in the test with M14, 4.35 µM (inactive); with NCI-H522 it was 12.2 µM (inactive). The GI50 in the test with BT-549 was 12.5 µM (inactive); with HCT-15 it was 4.01 µM; with OVCAR-4, 5.93 µM (inactive); in the test on MDA-N, 4.27 µM (inactive); in the test with SF-268, 5.18 µM (inactive); in the test with MDA-MB-435, 3.27 µM (inactive). For the same molecule, the GI50 in the test with HT-29 was 2.73 µM (inactive); with SF-539 it was 2.3 µM (inactive); in the test on EKVX it was 17.5 µM (inactive); with HL-60 it was 0.207 µM (active); with SNB-75, 16.1 µM (inactive); with OVCAR-3, 7.53 µM (inactive).
For the molecule `CCOC(=O)/C(C#N)=C\c1ccc(N(CCC(=O)O)CCC(=O)O)c(I)c1`, the GI50 with Malme-3M, in the test with SN12C, in the test on CCRF-CEM, with MOLT-4, with M14 and in the test with NCI-H522 was > 10 µM (inactive) in each case. For the same molecule, the GI50 in the test on BT-549 is > 10 µM (inactive); in the test on HCT-15, > 10 µM; with OVCAR-4 it was > 10 µM (inactive); in the test on MDA-N, > 10 µM (inactive); with SF-268, > 10 µM (inactive); with MDA-MB-435, > 10 µM (inactive). Besides, the GI50 in the test with HT-29, with SF-539, in the test with EKVX, with HL-60 and with SNB-75 was > 10 µM (inactive) throughout.
As to `COc1ncnc2c(Cl)c(C(O)c3ccccc3)c(Cl)cc12` (configuration not stated), the GI50 with U-251 is 27.3 µM (inactive); in the test on Malme-3M it was 34.6 µM (inactive); in the test on SN12C, 28.1 µM (inactive); in the test with MOLT-4, 24 µM (inactive); in the test on M14, 23.9 µM (inactive); with NCI-H522, 31.3 µM (inactive). The GI50 in the test with BT-549 is 20.6 µM (inactive); in the test with HCT-15 it was 24.6 µM; with OVCAR-4 it was 29.1 µM (inactive); in the test with MDA-N, 5.16 µM (inactive); in the test on SF-268 it was 21 µM (inactive); in the test with MDA-MB-435, 5.57 µM (inactive). For the same molecule, the GI50 in the test with HT-29 was 30.1 µM (inactive); with SF-539, 20.6 µM (inactive); with EKVX, 30.5 µM (inactive); with HL-60, 27.5 µM (inactive); with SNB-75, 22.4 µM (inactive); with OVCAR-3 it was 43.8 µM (inactive).
On to `N#CC1(C#N)C(c2ccccc2)C=CC(c2ccc([N+](=O)[O-])cc2)C1(C#N)C#N` (configuration not stated), for which the GI50 with U-251 is 20.4 µM (inactive); with SN12C, 4.83 µM (inactive); in the test on CCRF-CEM, 0.278 µM (active); in the test on MOLT-4, 2.3 µM (inactive); in the test on M14, 4.59 µM (inactive); in the test with NCI-H522, 3.21 µM (inactive). Moreover, the GI50 is 10.4 µM (inactive) in the test on BT-549; 3.69 µM with HCT-15; 16.5 µM (inactive) in the test on OVCAR-4; 6.22 µM (inactive) in the test with MDA-N; 17.5 µM (inactive) with SF-268; 3.37 µM (inactive) in the test on MDA-MB-435. The GI50 is 3.61 µM (inactive) in the test on HT-29; 2.81 µM (inactive) in the test with SF-539; 14.8 µM (inactive) in the test with EKVX; 0.223 µM (active) with HL-60; 24.7 µM (inactive) in the test with SNB-75; 9.98 µM (inactive) in the test with OVCAR-3.
`CC1(C)CC(=O)c2c([nH]c(=S)c(C#N)c2-c2ccc(Br)cc2)C1`: the GI50 is 35.6 µM (inactive) in the test with U-251; 60.7 µM (inactive) with Malme-3M; 48.9 µM (inactive) with SN12C; 5.85 µM (inactive) in the test on CCRF-CEM; 43 µM (inactive) in the test with M14; 24.2 µM (inactive) in the test with NCI-H522. For the same molecule, the GI50 in the test on BT-549 is > 100 µM (inactive); with HCT-15 it was 45.8 µM; in the test on OVCAR-4, 34.4 µM (inactive); in the test with MDA-N it was 70.5 µM (inactive); with SF-268, 55.2 µM (inactive); in the test with MDA-MB-435, 51.5 µM (inactive). Further, the GI50 was 40.3 µM (inactive) with HT-29; 67.5 µM (inactive) in the test on SF-539; > 100 µM (inactive) in the test with EKVX; 43.9 µM (inactive) in the test on HL-60; > 100 µM (inactive) with SNB-75; 30.7 µM (inactive) in the test on OVCAR-3.
As to `Cc1ccc(/N=C2/C(c3ccccc3)=C(SC3=C(c4ccccc4)/C(=N/c4ccc(C)cc4)c4ccccc43)c3ccccc32)cc1`, the GI50 in the test on U-251 was 15.7 µM (inactive); in the test on SN12C, 20.9 µM (inactive); with CCRF-CEM, > 100 µM (inactive); in the test on MOLT-4 it was > 87.7 µM (inactive); with M14 it was 59.8 µM (inactive); with NCI-H522 it was 34.6 µM (inactive). Also, the GI50 in the test on BT-549 is 23.7 µM (inactive); in the test on HCT-15, 17.7 µM; in the test with OVCAR-4, 4.09 µM (inactive); in the test with MDA-N it was 97.7 µM (inactive); in the test with SF-268, 6.44 µM (inactive); in the test on MDA-MB-435, > 100 µM (inactive). The GI50 is 24.6 µM (inactive) in the test on HT-29; 6.21 µM (inactive) with SF-539; 19.1 µM (inactive) in the test with EKVX; 7.87 µM (inactive) with HL-60; 8.63 µM (inactive) with SNB-75; 27.5 µM (inactive) in the test with OVCAR-3.
For `COc1ccc(/C=C/C(=O)N[C@@H]2C(=O)N3[C@@H]2SC(C)(C)[C@@H]3C(=O)O)cc1OC`, the GI50 in the test on U-251 is > 100 µM (inactive); in the test on SN12C, > 100 µM (inactive); in the test with CCRF-CEM, > 100 µM (inactive); with MOLT-4, > 100 µM (inactive); in the test with M14, > 100 µM (inactive); in the test on NCI-H522, 85.5 µM (inactive). Further, the GI50 in the test with BT-549 was > 100 µM (inactive); in the test on HCT-15 it was > 100 µM; in the test with OVCAR-4, > 100 µM (inactive); with MDA-N it was > 100 µM (inactive); in the test with SF-268, > 100 µM (inactive); with MDA-MB-435, > 100 µM (inactive). Besides, the GI50 with HT-29, in the test on SF-539, in the test with EKVX, in the test with HL-60, in the test with SNB-75 and with OVCAR-3 was > 100 µM (inactive) each time.
For the molecule `COc1ccc(CC[N+]2(C)COc3cc4oc(=O)cc(C)c4cc3C2)cc1OC` (configuration not stated), the GI50 is > 100 µM (inactive) in the test on U-251; > 100 µM (inactive) in the test on Malme-3M; > 100 µM (inactive) in the test on SN12C; > 100 µM (inactive) in the test on CCRF-CEM; 1.61 µM (inactive) in the test on MOLT-4; > 100 µM (inactive) in the test on M14. For the same molecule, the GI50 in the test with NCI-H522 is > 100 µM (inactive); in the test on BT-549, > 100 µM (inactive); in the test on HCT-15, > 100 µM; in the test with OVCAR-4, > 100 µM (inactive); in the test with MDA-N, > 100 µM (inactive); in the test on SF-268, > 100 µM (inactive). Further, the GI50 in the test with MDA-MB-435, with HT-29, in the test with EKVX, in the test with HL-60, with SNB-75 and in the test with OVCAR-3 was > 100 µM (inactive) throughout.
As to `CCCN1C(=O)CC(C)N(Cc2ccccc2Cl)C1=S` (configuration not stated), the GI50 in the test with U-251 was 24 µM (inactive); in the test on Malme-3M, 25.4 µM (inactive); in the test on SN12C, 30.6 µM (inactive); in the test on CCRF-CEM, 44.5 µM (inactive); in the test on MOLT-4 it was 28.2 µM (inactive); in the test with M14, 25.7 µM (inactive). In addition, the GI50 with NCI-H522 is 21.1 µM (inactive); in the test on BT-549, 24.4 µM (inactive); in the test with HCT-15, 35.2 µM; in the test with OVCAR-4, 43.7 µM (inactive); in the test with MDA-N, 21.5 µM (inactive); in the test on SF-268, 24.4 µM (inactive). Further, the GI50 is 23.7 µM (inactive) in the test with MDA-MB-435; 37.9 µM (inactive) in the test on HT-29; 16 µM (inactive) with SF-539; 27.9 µM (inactive) in the test on EKVX; 37.4 µM (inactive) in the test with HL-60; 26.1 µM (inactive) in the test with OVCAR-3.
On to `OC(c1ccc(Br)cc1)(c1cccs1)C1CC1` (configuration not stated), for which the GI50 is 17.8 µM (inactive) in the test on U-251; 20.5 µM (inactive) in the test on Malme-3M; 26.2 µM (inactive) in the test with CCRF-CEM; 22.1 µM (inactive) in the test on MOLT-4; 21.1 µM (inactive) in the test with M14; 18.5 µM (inactive) with NCI-H522. The GI50 is 24.4 µM (inactive) in the test with BT-549; 25.4 µM in the test with HCT-15; 22.7 µM (inactive) in the test with OVCAR-4; 20.7 µM (inactive) in the test with MDA-N; 20.7 µM (inactive) in the test on SF-268; 18.1 µM (inactive) in the test with MDA-MB-435. Further, the GI50 was 23.4 µM (inactive) with HT-29; 21.4 µM (inactive) with SF-539; 31.3 µM (inactive) with EKVX; 20.8 µM (inactive) with HL-60; 25.8 µM (inactive) with SNB-75; 18.8 µM (inactive) in the test with OVCAR-3.
Take `Cc1ccc(O)c(C(=O)/C=C/c2ccccc2)c1`: the GI50 with U-251 is > 100 µM (inactive); in the test on SN12C it was > 100 µM (inactive); with CCRF-CEM it was > 100 µM (inactive); with MOLT-4, 9.93 µM (inactive); in the test with M14, > 100 µM (inactive); in the test on NCI-H522, 5.81 µM (inactive). In addition, the GI50 in the test on BT-549 was > 100 µM (inactive); in the test with HCT-15, > 100 µM; with OVCAR-4 it was 78.9 µM (inactive); in the test with MDA-N, > 100 µM (inactive); with SF-268, > 100 µM (inactive); in the test with MDA-MB-435, > 100 µM (inactive). Also, the GI50 is > 100 µM (inactive) in the test with HT-29; > 100 µM (inactive) in the test with SF-539; > 100 µM (inactive) in the test with EKVX; 23.1 µM (inactive) in the test on HL-60; 49 µM (inactive) with SNB-75; > 100 µM (inactive) in the test with OVCAR-3.
